System: G-401 tumor spheroids, viability % test/control
Assay: Anticancer human tumor G-401 cell line growth inhibition;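 also: spheroids exposed to compound for 7 days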;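 as to viability, T/C: 100% = DMSO vehicle-treated spheroids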
Settings: spheroids with HUVEC and MSC; for IC50: curve of first compound; for viability, T/C: stronger effect = lower value
Summary of the method: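 Complex tumor spheroids combined malignant cells with endothelial cells and mesenchymal stem cells. DNA-damaging drugs and DNA repair inhibitors were tested alone and in combination, at half-log dilutions down from clinical Cmax (top 10 microM if Cmax unknown), 0.25% DMSO final.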

[1] = second compound 30 pM, first compound 0.0316 µM
[2] = second compound 30 pM, first compound 0.1 µM
[3] = second compound 30 pM, first compound 0.316 µM
[4] = second compound 30 pM, first compound 1 µM
[5] = second compound 30 pM, first compound 3.16 µM
[6] = second compound 30 pM, first compound 10 µM
[7] = second compound 94.9 pM, first compound 0.0316 µM
[8] = second compound 94.9 pM, first compound 0.1 µM
[9] = second compound 94.9 pM, first compound 0.316 µM
[10] = second compound 94.9 pM, first compound 1 µM
[11] = second compound 94.9 pM, first compound 3.16 µM
[12] = second compound 94.9 pM, first compound 10 µM
[13] = second compound 0.0003 µM, first compound 0.0316 µM
[14] = second compound 0.0003 µM, first compound 0.1 µM
[15] = second compound 0.0003 µM, first compound 0.316 µM
[16] = second compound 0.0003 µM, first compound 1 µM
[17] = second compound 0.0003 µM, first compound 3.16 µM
[18] = second compound 0.0003 µM, first compound 10 µM
[19] = second compound 0.000949 µM, first compound 0.0316 µM
[20] = second compound 0.000949 µM, first compound 0.1 µM
[21] = second compound 0.000949 µM, first compound 0.316 µM
[22] = second compound 0.000949 µM, first compound 1 µM
[23] = second compound 0.000949 µM, first compound 3.16 µM
[24] = second compound 0.000949 µM, first compound 10 µM
[25] = second compound 0.003 µM, first compound 0.0316 µM
[26] = second compound 0.003 µM, first compound 0.1 µM
[27] = second compound 0.003 µM, first compound 0.316 µM
[28] = second compound 0.003 µM, first compound 1 µM
[29] = second compound 0.003 µM, first compound 3.16 µM
[30] = second compound 0.003 µM, first compound 10 µM

CC(C)n1c(=O)n(C)c2cnc3cc(F)c(-c4ccc(OCCCN5CCCCC5)nc4)cc3c21 + COc1cc2c(cc1O)CCNC21CSC2c3c(OC(C)=O)c(C)c4c(c3C(COC1=O)N1C(O)C3Cc5cc(C)c(OC)c(O)c5C(C21)N3C)OCO4
IC50 (second compound 30 pM): < 31.6 nM | IC50 (second compound 94.9 pM): < 31.6 nM | IC50 (second compound 0.0003 µM): < 31.6 nM | IC50 (second compound 0.000949 µM): < 31.6 nM | IC50 (second compound 0.003 µM): < 31.6 nM | viability, T/C [1]: 43.6% | viability, T/C [2]: 35.7% | viability, T/C [3]: 35% | viability, T/C [4]: 46.2% | viability, T/C [5]: 36.9% | viability, T/C [6]: 19% | viability, T/C [7]: 19.1% | viability, T/C [8]: 17.3% | viability, T/C [9]: 18.1% | viability, T/C [10]: 21.6% | viability, T/C [11]: 23.9% | viability, T/C [12]: 23% | viability, T/C [13]: 15.6% | viability, T/C [14]: 12.8% | viability, T/C [15]: 16.4% | viability, T/C [16]: 19.7% | viability, T/C [17]: 18.4% | viability, T/C [18]: 17.9% | viability, T/C [19]: 7.44% | viability, T/C [20]: 7.47% | viability, T/C [21]: 7.71% | viability, T/C [22]: 11.5% | viability, T/C [23]: 12.2% | viability, T/C [24]: 10.6% | viability, T/C [25]: 0.13% | viability, T/C [26]: 0.16% | viability, T/C [27]: 0.15% | viability, T/C [28]: 0.36% | viability, T/C [29]: 0.4% | viability, T/C [30]: 0.44%

CC1COCCN1c1cc(-c2ccnn2C)c2ccnc(-c3ccn[nH]3)c2n1 (stereo not given) + COc1cc2c(cc1O)CCNC21CSC2c3c(OC(C)=O)c(C)c4c(c3C(COC1=O)N1C(O)C3Cc5cc(C)c(OC)c(O)c5C(C21)N3C)OCO4
IC50 (second compound 30 pM): 39.6 nM | IC50 (second compound 94.9 pM): < 31.6 nM | IC50 (second compound 0.0003 µM): < 31.6 nM | IC50 (second compound 0.000949 µM): < 31.6 nM | IC50 (second compound 0.003 µM): < 31.6 nM | viability, T/C [1]: 57.3% | viability, T/C [2]: 22.1% | viability, T/C [3]: 12.5% | viability, T/C [4]: 12.3% | viability, T/C [5]: 14.6% | viability, T/C [6]: 16.3% | viability, T/C [7]: 32% | viability, T/C [8]: 16.9% | viability, T/C [9]: 10.8% | viability, T/C [10]: 11.2% | viability, T/C [11]: 12.9% | viability, T/C [12]: 15.8% | viability, T/C [13]: 13.1% | viability, T/C [14]: 10.8% | viability, T/C [15]: 9.87% | viability, T/C [16]: 9.44% | viability, T/C [17]: 11% | viability, T/C [18]: 14% | viability, T/C [19]: 7.87% | viability, T/C [20]: 7.07% | viability, T/C [21]: 6.97% | viability, T/C [22]: 4.82% | viability, T/C [23]: 3.79% | viability, T/C [24]: 1.07% | viability, T/C [25]: 0.15% | viability, T/C [26]: 0.14% | viability, T/C [27]: 0.12% | viability, T/C [28]: 0.11% | viability, T/C [29]: 0.11% | viability, T/C [30]: 0.17%

COc1cc(C)[nH]c(=O)c1CN1CCc2c(Cl)cc(C(OC)C3COC3)c(Cl)c2C1=O (stereo not given) + COc1cc2c(cc1O)CCNC21CSC2c3c(OC(C)=O)c(C)c4c(c3C(COC1=O)N1C(O)C3Cc5cc(C)c(OC)c(O)c5C(C21)N3C)OCO4
IC50 (second compound 30 pM): 106 nM | IC50 (second compound 94.9 pM): 87 nM | IC50 (second compound 0.0003 µM): < 31.6 nM | IC50 (second compound 0.000949 µM): < 31.6 nM | IC50 (second compound 0.003 µM): < 31.6 nM | viability, T/C [1]: 83.1% | viability, T/C [2]: 50.9% | viability, T/C [3]: 33.9% | viability, T/C [4]: 28.1% | viability, T/C [5]: 26.9% | viability, T/C [6]: 26.1% | viability, T/C [7]: 74.1% | viability, T/C [8]: 44.6% | viability, T/C [9]: 36.1% | viability, T/C [10]: 27.3% | viability, T/C [11]: 22.7% | viability, T/C [12]: 22.8% | viability, T/C [13]: 33.1% | viability, T/C [14]: 30.2% | viability, T/C [15]: 23% | viability, T/C [16]: 20.4% | viability, T/C [17]: 18.4% | viability, T/C [18]: 18.1% | viability, T/C [19]: 4.72% | viability, T/C [20]: 5.11% | viability, T/C [21]: 3.78% | viability, T/C [22]: 4% | viability, T/C [23]: 5.07% | viability, T/C [24]: 3.13% | viability, T/C [25]: 0.12% | viability, T/C [26]: 0.12% | viability, T/C [27]: 0.11% | viability, T/C [28]: 0.11% | viability, T/C [29]: 0.11% | viability, T/C [30]: 0.18%

COc1ccc([C@@H](O)c2cc(-c3ncnc4cc(N5CCOCC5)ccc34)c(F)cc2Cl)nn1 + COc1cc2c(cc1O)CCNC21CSC2c3c(OC(C)=O)c(C)c4c(c3C(COC1=O)N1C(O)C3Cc5cc(C)c(OC)c(O)c5C(C21)N3C)OCO4
IC50 (second compound 30 pM): 1000 nM | IC50 (second compound 94.9 pM): 493 nM | IC50 (second compound 0.0003 µM): < 31.6 nM | IC50 (second compound 0.000949 µM): < 31.6 nM | IC50 (second compound 0.003 µM): < 31.6 nM | viability, T/C [1]: 93.1% | viability, T/C [2]: 99.2% | viability, T/C [3]: 87.4% | viability, T/C [4]: 50% | viability, T/C [5]: 16.5% | viability, T/C [6]: 9.53% | viability, T/C [7]: 83.8% | viability, T/C [8]: 83.1% | viability, T/C [9]: 63.6% | viability, T/C [10]: 27.7% | viability, T/C [11]: 9.96% | viability, T/C [12]: 5.51% | viability, T/C [13]: 40% | viability, T/C [14]: 29.8% | viability, T/C [15]: 18.6% | viability, T/C [16]: 8.98% | viability, T/C [17]: 3.1% | viability, T/C [18]: 0.75% | viability, T/C [19]: 5.15% | viability, T/C [20]: 5.57% | viability, T/C [21]: 2.21% | viability, T/C [22]: 0.51% | viability, T/C [23]: 0.05% | viability, T/C [24]: 0.16% | viability, T/C [25]: 0.22% | viability, T/C [26]: 0.25% | viability, T/C [27]: 0.21% | viability, T/C [28]: 0.21% | viability, T/C [29]: 0.16% | viability, T/C [30]: 0.25%
